Results taken from ChEMBL document CHEMBL1140113, “Structural requirements for drug inhibition of the liver specific human organic cation transport protein 1” (J Med Chem, 2008).

T1: Solute carrier family 22 member 1 (Homo sapiens, UniProt O15245)
T1 sequence (O15245 whole entry): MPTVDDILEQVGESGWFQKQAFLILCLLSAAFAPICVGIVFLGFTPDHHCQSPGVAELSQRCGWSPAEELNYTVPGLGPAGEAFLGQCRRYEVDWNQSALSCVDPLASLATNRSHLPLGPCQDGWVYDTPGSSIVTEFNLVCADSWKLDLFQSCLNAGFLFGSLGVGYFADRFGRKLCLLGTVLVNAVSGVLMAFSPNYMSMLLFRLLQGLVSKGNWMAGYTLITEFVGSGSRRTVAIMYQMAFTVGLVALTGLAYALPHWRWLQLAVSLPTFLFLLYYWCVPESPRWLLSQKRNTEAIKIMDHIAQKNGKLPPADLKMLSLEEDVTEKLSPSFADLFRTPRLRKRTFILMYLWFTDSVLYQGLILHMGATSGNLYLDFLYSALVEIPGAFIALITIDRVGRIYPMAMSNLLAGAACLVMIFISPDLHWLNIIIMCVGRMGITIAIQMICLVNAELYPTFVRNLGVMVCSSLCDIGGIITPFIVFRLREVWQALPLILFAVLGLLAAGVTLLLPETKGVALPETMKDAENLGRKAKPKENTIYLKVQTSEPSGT

T2: OCT1 (SLC22A1) (Homo sapiens, UniProt O15245)
T2 sequence (O15245 whole entry): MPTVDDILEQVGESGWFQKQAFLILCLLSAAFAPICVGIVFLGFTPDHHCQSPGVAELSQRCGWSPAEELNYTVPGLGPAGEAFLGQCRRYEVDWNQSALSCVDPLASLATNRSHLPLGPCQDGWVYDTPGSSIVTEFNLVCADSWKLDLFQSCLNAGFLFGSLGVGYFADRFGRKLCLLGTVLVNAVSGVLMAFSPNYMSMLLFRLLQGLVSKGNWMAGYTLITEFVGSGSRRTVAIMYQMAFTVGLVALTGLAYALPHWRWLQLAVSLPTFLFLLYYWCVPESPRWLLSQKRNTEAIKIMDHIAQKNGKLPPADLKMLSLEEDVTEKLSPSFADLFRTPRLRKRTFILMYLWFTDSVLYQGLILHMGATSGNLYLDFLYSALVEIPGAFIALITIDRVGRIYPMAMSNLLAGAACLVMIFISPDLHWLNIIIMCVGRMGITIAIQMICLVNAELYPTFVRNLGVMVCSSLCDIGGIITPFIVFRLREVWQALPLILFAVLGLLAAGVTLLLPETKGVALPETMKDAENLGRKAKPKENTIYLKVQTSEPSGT


Key:
[1] = molecular target: T1, Solute carrier family 22 member 1; assay type: cell-based, HEK293
OCT1 (SLC22A1) [2] = molecular target: T2, OCT1 (SLC22A1); experiment: in vitro
OCT1 (SLC22A1) [3] = molecular target: T2, OCT1 (SLC22A1); experiment: Inhibition of 4-(4-(dimethylamino)styryl)-N-methylpyridinium uptake at human OCT1 expressed in HEK293 cells at 10 uM by confocal microscopy; assay type: cell-based; conditions: HEK293 cells that express human OCT1, probe 4-(4-(dimethylamino)styryl)-N-methylpyridinium
not read = substrate: CC[N+](CC)(CC)CC; experiment: not read
[4] = HEK293 cells that express human OCT1, probe 4-(4-(dimethylamino)styryl)-N-methylpyridinium

Row | Molecule | IC50 [1] [µM] | inhibition at 100 µM (OCT1 (SLC22A1) [2]; [4]) [%] | inhibition at 100 µM (OCT1 (SLC22A1) [2]; hek293) [%] | inhibition at 10 µM (OCT1 (SLC22A1) [3]) [%] | Km (not read) [µM]
1 | N=C(N)NC(=O)c1nc(Cl)c(N)nc1N [AMILORIDE] | 57 | 68.7 | – | – | –
2 | CN(C)CCC=C1c2ccccc2CCc2ccccc21 [AMITRIPTYLINE] | 16.9 | 78.5 | – | – | –
3 | COc1cc(NS(C)(=O)=O)ccc1Nc1c2ccccc2nc2ccccc12 [AMSACRINE] | 5 | 68.4 | – | – | –
4 | CN1CCc2cccc3c2[C@H]1Cc1ccc(O)c(O)c1-3 [APOMORPHINE] | 20.8 | 69 | – | – | –
5 | CC(C)(Cc1c[nH]c2ccccc12)NCC(O)COc1ccccc1C#N (stereo not drawn) [BUCINDOLOL] | 27.2 | 84.6 | – | – | –
6 | CN(C)CCCN1c2ccccc2Sc2ccc(Cl)cc21 [CHLORPROMAZINE] | 27 | 85.1 | – | – | –
7 | CN(C)CC/C=C1/c2ccccc2Sc2ccc(Cl)cc21 [CHLORPROTHIXENE] | 77.8 | 65.4 | – | – | –
8 | CN(C)CCCC1(c2ccc(F)cc2)OCc2cc(C#N)ccc21 (stereo not drawn) [CITALOPRAM] | 18.8 | – | 52 | – | –
9 | CN1CCC[C@@H]1CCO[C@](C)(c1ccccc1)c1ccc(Cl)cc1 [CLEMASTINE] | 4.9 | 78.8 | – | – | –
10 | CN(C)CCCN1c2ccccc2CCc2ccc(Cl)cc21 [CLOMIPRAMINE] | 19.3 | 85.3 | – | – | –
11 | Clc1cccc(Cl)c1N=C1NCCN1 [CLONIDINE] | 22.6 | – | 65.4 | – | –
12 | COc1ccc(CCNC[C@H](O)c2ccc(O)cc2)cc1OC [DENOPAMINE] | 46.9 | – | 51.5 | – | –
13 | CNCCCN1c2ccccc2CCc2ccccc21 [DESIPRAMINE] | 56.8 | – | 84.3 | – | –
14 | COc1ccc([C@@H]2Sc3ccccc3N(CCN(C)C)C(=O)[C@@H]2OC(C)=O)cc1 [DILTIAZEM] | 12.4 | 65.5 | – | – | –
15 | OCCN1CCN(CCCN2c3ccccc3Sc3ccc(C(F)(F)F)cc32)CC1 [FLUPHENAZINE] | 110 | 61.9 | – | – | –
16 | O=C(CCCN1CCC(O)(c2ccc(Cl)cc2)CC1)c1ccc(F)cc1 [HALOPERIDOL] | 142 | 67.1 | – | – | –
17 | CN(C)CCCN1c2ccccc2CCc2ccccc21 [IMIPRAMINE] | 17.1 | – | 82.8 | – | –
18 | CN(C)C(=O)C(CCN1CCC(O)(c2ccc(Cl)cc2)CC1)(c1ccccc1)c1ccccc1 [LOPERAMIDE] | 23.7 | – | 73.4 | – | –
19 | CC12CC3CC(C)(C1)CC(N)(C3)C2 [MEMANTINE] | 27.2 | 58.6 | – | – | –
20 | C[N+]1(C)CCCC(OC(=O)C(O)(c2ccccc2)c2ccccc2)C1 (stereo not drawn) [MEPENZOLATE BROMIDE] | 64.9 | 59.5 | – | – | –
21 | CCN(CC)CCNC(=O)c1cc(Cl)c(N)cc1OC [METOCLOPRAMIDE] | 94.8 | 52.3 | – | – | –

Row | Molecule | IC50 [1] [µM] | inhibition at 100 µM (OCT1 (SLC22A1) [2]; [4]) [%] | inhibition at 100 µM (OCT1 (SLC22A1) [2]; hek293) [%] | inhibition at 10 µM (OCT1 (SLC22A1) [3]) [%] | Km (not read) [µM]
22 | CN1CC[C@]23c4c5ccc(O)c4O[C@H]2[C@@H](O)C=C[C@H]3[C@H]1C5 [MORPHINE] | 28 | 67.9 | – | – | –
23 | C[C@]12CC[C@H]3[C@@H](CCC4=CC(=O)CC[C@@H]43)[C@@H]1CC[C@@H]2O [NANDROLONE] | 35.1 | – | 79.3 | – | –
24 | Cc1nccn1CC1CCc2c(c3ccccc3n2C)C1=O (stereo not drawn) [ONDANSETRON] | 20.4 | – | 63.8 | – | –
25 | C=CCOc1ccccc1OCC(O)CNC(C)C (stereo not drawn) [OXPRENOLOL] | 28.6 | – | 61.5 | – | –
26 | CC(COc1ccccc1)N(CCCl)Cc1ccccc1 (stereo not drawn) [PHENOXYBENZAMINE] | 15.1 | 56.7 | – | – | –
27 | COc1cc2nc(N3CCN(C(=O)c4ccco4)CC3)nc(N)c2cc1OC [PRAZOSIN] | 9.9 | – | 55.6 | 55.6 | –
28 | CN1CCN(CCCN2c3ccccc3Sc3ccc(Cl)cc32)CC1 [PROCHLORPERAZINE] | 49.6 | 66.5 | – | – | –
29 | CN(C)CCCN1c2ccccc2Sc2ccccc21 [PROMAZINE] | 17.2 | 79.2 | – | – | –
30 | CC(CN1c2ccccc2Sc2ccccc21)N(C)C (stereo not drawn) [PROMETHAZINE] | 35.1 | 71.1 | – | – | –
31 | CCCNCC(O)COc1ccccc1C(=O)CCc1ccccc1 (stereo not drawn) [PROPAFENONE] | 11.1 | 83.8 | – | – | –
32 | CC(C)NCC(O)COc1cccc2ccccc12 (stereo not drawn) [PROPRANOLOL] | 63.2 | 55.4 | – | – | –
33 | CCOc1cc(CC(=O)N[C@@H](CC(C)C)c2ccccc2N2CCCCC2)ccc1C(=O)O [REPAGLINIDE] | 9.2 | 76.4 | – | – | –
34 | COc1cc2nc(N3CCN(C(=O)C4CCCO4)CC3)nc(N)c2cc1OC (stereo not drawn) [TERAZOSIN] | 23.7 | 77 | – | – | –
35 | COc1cccc(C2(O)CCCCC2CN(C)C)c1 (stereo not drawn) [TRAMADOL] | 52.5 | 60.2 | – | – | –
36 | CC(CN(C)C)CN1c2ccccc2CCc2ccccc21 (stereo not drawn) [TRIMIPRAMINE] | 27.7 | 77.2 | – | – | –
37 | CC[C@]1(O)C[C@@H]2CN(CCc3c([nH]c4ccccc34)[C@@](C(=O)OC)(c3cc4c(cc3OC)N(C)[C@H]3[C@@](O)(C(=O)OC)[C@H](OC(C)=O)[C@]5(CC)C=CCN6CC[C@]43[C@@H]65)C2)C1 [VINBLASTINE] | – | 1.9 | – | – | –
38 | CC(=O)CC(c1ccccc1)c1c(O)c2ccccc2oc1=O (stereo not drawn) [WARFARIN] | – | 4 | – | – | –
39 | CC(=O)N[C@H]1[C@H]([C@H](O)[C@H](O)CO)OC(C(=O)O)=C[C@@H]1N=C(N)N [ZANAMIVIR] | – | 2 | – | – | –
40 | Cc1cn([C@H]2C[C@H](N=[N+]=[N-])[C@@H](CO)O2)c(=O)[nH]c1=O [ZIDOVUDINE] | – | 4.7 | – | – | –
41 | Solute carrier family 22 member 1 (Homo sapiens) (protein) MPTVDDILEQVGESGWFQKQAFLILCLLSAAFAPICVGIVFLGFTPDHHCQSPGVAELSQRCGWSPAEELNYTVPGLGPAGEAFLGQCRRYEVDWNQSALSCVDPLASLATNRSHLPLGPCQDGWVYDTPGSSIVTEFNLVCADSWKLDLFQSCLNAGFLFGSLGVGYFADRFGRKLCLLGTVLVNAVSGVLMAFSPNYMSMLLFRLLQGLVSKGNWMAGYTLITEFVGSGSRRTVAIMYQMAFTVGLVALTGLAYALPHWRWLQLAVSLPTFLFLLYYWCVPESPRWLLSQKRNTEAIKIMDHIAQKNGKLPPADLKMLSLEEDVTEKLSPSFADLFRTPRLRKRTFILMYLWFTDSVLYQGLILHMGATSGNLYLDFLYSALVEIPGAFIALITIDRVGRIYPMAMSNLLAGAACLVMIFISPDLHWLNIIIMCVGRMGITIAIQMICLVNAELYPTFVRNLGVMVCSSLCDIGGIITPFIVFRLREVWQALPLILFAVLGLLAAGVTLLLPETKGVALPETMKDAENLGRKAKPKENTIYLKVQTSEPSGT | – | – | – | – | 2.32
